Source: ChEMBL document CHEMBL1134827, “Design and synthesis of novel 2,3-dihydro-1H-isoindoles with high affinity and selectivity for the dopamine D3 receptor” (Bioorg Med Chem Lett, 2001)

Columns and labels:
[1] = molecular target: D(3) dopamine receptor (Homo sapiens, UniProt P35462); experiment: Displacement of [125I]iodosulpiride from human Dopamine receptor D3 expressed in CHO cells; format: cell-based
[2] = molecular target: D(2) dopamine receptor (Homo sapiens, UniProt P14416); experiment: Displacement of [125I]iodosulpiride from human Dopamine receptor D2 expressed in CHO cells; format: cell-based
[3] = molecular target: T1, 5-hydroxytryptamine receptor 2C (Homo sapiens, UniProt P28335); experiment: Evaluated for the binding affinity to 5-hydroxytryptamine 2C receptor
T1 sequence (P28335 whole entry): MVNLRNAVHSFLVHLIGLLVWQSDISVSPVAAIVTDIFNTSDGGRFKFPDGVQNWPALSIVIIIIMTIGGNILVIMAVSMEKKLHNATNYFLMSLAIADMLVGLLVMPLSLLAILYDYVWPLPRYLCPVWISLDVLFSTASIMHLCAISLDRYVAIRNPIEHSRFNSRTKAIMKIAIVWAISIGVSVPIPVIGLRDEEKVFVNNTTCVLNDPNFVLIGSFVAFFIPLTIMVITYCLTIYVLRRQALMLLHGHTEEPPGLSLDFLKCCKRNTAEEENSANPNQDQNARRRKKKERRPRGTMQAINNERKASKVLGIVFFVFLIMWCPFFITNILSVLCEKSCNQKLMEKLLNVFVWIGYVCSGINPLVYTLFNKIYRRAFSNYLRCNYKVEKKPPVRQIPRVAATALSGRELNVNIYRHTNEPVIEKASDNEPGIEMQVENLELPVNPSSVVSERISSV

[4] = molecular target: 5-hydroxytryptamine receptor 2B (Homo sapiens, UniProt P41595); experiment: Evaluated for the binding affinity to 5-HT 2B receptor
[5] = molecular target: 5-hydroxytryptamine receptor 2A (Homo sapiens, UniProt P28223); experiment: Evaluated for the binding affinity towards 5-hydroxytryptamine 2A receptor
[6] = molecular target: D(3) dopamine receptor (Rattus norvegicus) (UniProt P19020); experiment: Antagonistic activity at D3 receptor using in vitro functional assay
[7] = molecular target: 5-hydroxytryptamine receptor 7 (Homo sapiens, UniProt P34969); experiment: Evaluated for the binding affinity to 5-hydroxytryptamine 7 receptor
[8] = Evaluated for the bioavailability in rat (in vivo); format: ADME, organism-based
[9] = Evaluated for the half life in rat (in vivo); format: ADME, organism-based
[10] = molecular target: T2, Alpha-1B adrenergic receptor (Homo sapiens, UniProt P35368); experiment: Evaluated for the binding affinity to alpha 1B receptor
T2 sequence (P35368 whole entry): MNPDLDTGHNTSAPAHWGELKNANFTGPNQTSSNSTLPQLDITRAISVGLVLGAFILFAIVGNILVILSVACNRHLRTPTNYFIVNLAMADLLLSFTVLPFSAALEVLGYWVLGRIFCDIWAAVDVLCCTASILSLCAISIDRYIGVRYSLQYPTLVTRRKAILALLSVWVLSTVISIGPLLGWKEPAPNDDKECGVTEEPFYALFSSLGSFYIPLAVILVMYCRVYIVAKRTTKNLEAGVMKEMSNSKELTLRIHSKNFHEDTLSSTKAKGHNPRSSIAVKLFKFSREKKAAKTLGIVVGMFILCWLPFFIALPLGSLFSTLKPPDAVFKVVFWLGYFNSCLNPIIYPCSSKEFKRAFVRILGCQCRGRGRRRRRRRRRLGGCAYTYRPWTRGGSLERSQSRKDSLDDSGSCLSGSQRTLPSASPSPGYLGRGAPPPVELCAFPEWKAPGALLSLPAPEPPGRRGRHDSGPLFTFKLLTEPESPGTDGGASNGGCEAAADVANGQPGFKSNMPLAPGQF

[11] = molecular target: 5-hydroxytryptamine receptor 1B (Homo sapiens, UniProt P28222); experiment: Evaluated for the binding affinity to 5-hydroxytryptamine 1B receptor
[12] = molecular target: 5-hydroxytryptamine receptor 6 (Homo sapiens, UniProt P50406); experiment: Evaluated for the binding affinity towards 5-hydroxytryptamine 6 receptor
[13] = molecular target: T3, 5-hydroxytryptamine receptor 1A (Homo sapiens, UniProt P08908); experiment: Evaluated for the binding affinity to 5-hydroxytryptamine 1A receptor
T3 sequence (P08908 whole entry): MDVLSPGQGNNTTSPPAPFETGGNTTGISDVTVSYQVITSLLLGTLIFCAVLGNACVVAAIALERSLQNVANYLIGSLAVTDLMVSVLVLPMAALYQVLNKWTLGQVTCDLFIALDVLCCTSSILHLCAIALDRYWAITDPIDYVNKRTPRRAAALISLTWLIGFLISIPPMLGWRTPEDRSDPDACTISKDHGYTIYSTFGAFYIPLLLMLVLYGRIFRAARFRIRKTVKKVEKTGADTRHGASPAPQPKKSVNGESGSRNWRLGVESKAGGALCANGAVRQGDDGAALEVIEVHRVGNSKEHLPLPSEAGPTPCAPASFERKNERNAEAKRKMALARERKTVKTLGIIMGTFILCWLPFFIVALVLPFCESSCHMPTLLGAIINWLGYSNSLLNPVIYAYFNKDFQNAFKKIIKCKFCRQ

[14] = molecular target: 5-hydroxytryptamine receptor 1D (Homo sapiens, UniProt P28221); experiment: Evaluated for the binding affinity against 5-hydroxytryptamine 1D receptor
[15] = Evaluated for the low clearance in rat (in vivo); format: ADME, organism-based; details: blood, read-out: CLb

Chain of D(2) dopamine receptor (P14416 whole entry): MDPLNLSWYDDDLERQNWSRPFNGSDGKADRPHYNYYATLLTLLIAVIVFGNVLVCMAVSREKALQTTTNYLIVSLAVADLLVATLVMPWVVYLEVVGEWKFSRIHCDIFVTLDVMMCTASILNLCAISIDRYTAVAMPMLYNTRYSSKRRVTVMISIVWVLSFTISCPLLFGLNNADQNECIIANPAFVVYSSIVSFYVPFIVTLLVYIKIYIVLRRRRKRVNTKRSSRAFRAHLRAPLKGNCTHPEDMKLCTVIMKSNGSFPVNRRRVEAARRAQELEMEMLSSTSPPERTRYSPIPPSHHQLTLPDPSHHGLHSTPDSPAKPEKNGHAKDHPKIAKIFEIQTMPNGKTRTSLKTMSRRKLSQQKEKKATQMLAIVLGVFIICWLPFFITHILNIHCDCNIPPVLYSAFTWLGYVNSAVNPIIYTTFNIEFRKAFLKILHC
Chain of D(3) dopamine receptor (P35462 whole entry): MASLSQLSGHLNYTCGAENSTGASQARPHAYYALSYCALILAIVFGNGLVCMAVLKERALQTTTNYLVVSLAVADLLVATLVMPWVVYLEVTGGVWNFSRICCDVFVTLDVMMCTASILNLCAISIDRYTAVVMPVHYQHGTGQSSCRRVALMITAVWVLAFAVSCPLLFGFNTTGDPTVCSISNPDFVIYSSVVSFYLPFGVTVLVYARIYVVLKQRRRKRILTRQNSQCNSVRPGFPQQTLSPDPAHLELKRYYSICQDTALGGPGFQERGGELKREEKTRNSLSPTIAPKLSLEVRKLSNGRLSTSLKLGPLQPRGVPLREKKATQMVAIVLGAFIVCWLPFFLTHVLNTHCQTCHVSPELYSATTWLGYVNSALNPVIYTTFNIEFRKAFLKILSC
Chain of 5-hydroxytryptamine receptor 1D (P28221 whole entry): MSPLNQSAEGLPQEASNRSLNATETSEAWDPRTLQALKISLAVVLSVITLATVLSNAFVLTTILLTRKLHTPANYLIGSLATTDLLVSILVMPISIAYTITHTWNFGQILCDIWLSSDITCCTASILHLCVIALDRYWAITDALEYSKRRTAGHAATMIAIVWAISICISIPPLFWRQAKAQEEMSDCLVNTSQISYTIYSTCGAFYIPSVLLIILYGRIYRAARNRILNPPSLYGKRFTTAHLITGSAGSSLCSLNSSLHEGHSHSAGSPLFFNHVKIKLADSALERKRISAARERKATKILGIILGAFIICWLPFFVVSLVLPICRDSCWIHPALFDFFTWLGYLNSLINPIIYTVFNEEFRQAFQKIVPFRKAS
Chain of 5-hydroxytryptamine receptor 2A (P28223 whole entry): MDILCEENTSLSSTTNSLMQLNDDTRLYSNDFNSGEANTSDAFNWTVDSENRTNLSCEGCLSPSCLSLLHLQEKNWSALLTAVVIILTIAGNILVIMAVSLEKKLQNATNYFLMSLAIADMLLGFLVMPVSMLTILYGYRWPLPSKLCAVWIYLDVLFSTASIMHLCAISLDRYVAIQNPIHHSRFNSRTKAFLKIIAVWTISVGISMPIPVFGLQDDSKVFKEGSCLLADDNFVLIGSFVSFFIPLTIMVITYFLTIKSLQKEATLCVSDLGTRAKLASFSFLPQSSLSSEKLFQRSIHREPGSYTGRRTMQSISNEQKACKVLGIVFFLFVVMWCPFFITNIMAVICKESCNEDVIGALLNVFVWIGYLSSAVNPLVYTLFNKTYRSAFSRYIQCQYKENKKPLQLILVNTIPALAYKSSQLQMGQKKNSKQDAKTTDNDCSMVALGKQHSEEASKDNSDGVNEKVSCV
Chain of 5-hydroxytryptamine receptor 2B (P41595 whole entry): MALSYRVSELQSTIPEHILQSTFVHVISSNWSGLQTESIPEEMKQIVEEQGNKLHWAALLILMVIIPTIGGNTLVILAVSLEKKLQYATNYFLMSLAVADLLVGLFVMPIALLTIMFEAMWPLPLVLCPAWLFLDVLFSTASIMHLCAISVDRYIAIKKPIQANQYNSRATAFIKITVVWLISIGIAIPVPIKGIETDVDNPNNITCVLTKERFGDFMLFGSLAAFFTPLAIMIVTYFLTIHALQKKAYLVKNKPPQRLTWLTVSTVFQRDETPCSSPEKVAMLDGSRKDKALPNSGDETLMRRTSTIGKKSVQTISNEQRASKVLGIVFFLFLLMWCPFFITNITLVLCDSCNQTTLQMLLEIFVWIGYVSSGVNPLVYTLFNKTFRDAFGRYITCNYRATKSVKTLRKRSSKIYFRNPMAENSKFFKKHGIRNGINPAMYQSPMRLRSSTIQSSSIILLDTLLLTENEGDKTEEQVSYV
Chain of D(3) dopamine receptor (Rattus norvegicus) (P19020 whole entry): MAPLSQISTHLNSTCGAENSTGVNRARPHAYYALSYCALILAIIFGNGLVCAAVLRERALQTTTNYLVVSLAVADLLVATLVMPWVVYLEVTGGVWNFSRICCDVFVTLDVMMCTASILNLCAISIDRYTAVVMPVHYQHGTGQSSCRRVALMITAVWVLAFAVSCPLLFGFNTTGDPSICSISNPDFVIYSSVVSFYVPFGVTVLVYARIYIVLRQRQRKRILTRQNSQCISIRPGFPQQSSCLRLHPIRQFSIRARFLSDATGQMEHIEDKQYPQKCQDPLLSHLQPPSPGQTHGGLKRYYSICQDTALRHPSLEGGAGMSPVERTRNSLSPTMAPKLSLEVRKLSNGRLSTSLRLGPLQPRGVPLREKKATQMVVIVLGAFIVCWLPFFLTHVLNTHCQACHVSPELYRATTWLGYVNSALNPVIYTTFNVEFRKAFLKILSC
Chain of 5-hydroxytryptamine receptor 1B (P28222 whole entry): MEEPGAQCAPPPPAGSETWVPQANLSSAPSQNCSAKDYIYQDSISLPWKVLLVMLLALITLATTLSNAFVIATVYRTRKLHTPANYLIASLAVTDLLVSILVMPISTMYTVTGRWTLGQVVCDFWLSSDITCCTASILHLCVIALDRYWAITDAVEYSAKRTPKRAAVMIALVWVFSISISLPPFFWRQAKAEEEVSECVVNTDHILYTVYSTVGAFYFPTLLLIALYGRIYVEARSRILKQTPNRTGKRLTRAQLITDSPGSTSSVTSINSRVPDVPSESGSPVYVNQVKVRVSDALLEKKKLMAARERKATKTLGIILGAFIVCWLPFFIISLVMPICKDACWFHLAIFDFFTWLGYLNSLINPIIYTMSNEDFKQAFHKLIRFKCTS
Chain of 5-hydroxytryptamine receptor 6 (P50406 whole entry): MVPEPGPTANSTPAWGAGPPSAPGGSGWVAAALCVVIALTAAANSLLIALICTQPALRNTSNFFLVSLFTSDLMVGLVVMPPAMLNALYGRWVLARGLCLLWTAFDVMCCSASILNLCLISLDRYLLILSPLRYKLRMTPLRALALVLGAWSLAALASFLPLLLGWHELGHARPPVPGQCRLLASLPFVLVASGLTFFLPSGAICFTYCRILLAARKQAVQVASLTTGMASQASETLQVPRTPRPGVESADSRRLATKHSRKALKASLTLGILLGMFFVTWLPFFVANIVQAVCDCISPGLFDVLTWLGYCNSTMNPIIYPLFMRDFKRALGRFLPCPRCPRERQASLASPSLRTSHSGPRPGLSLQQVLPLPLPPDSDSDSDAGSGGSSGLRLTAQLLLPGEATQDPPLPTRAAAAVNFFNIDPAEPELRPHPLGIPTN
Chain of 5-hydroxytryptamine receptor 7 (P34969 whole entry): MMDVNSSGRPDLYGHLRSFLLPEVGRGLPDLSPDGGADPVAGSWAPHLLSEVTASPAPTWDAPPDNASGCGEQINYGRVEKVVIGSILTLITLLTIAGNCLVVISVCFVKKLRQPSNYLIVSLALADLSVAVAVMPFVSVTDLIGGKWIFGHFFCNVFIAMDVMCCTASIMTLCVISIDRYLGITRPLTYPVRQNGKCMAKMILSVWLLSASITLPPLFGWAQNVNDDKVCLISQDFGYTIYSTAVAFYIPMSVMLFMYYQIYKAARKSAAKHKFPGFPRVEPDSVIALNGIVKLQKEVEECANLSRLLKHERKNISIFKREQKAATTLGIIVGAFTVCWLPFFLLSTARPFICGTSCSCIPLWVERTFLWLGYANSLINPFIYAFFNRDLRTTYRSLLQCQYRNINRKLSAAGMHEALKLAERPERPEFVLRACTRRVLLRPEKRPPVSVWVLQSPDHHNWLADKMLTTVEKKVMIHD

Ki [1]	Ki [2]	Structure (SMILES)	other results
3.16 nM	100 nM	O=C(/C=C/c1ccc(F)cc1)N[C@H]1CC[C@H](CCN2Cc3ccc(Br)cc3C2)CC1	
7.94 nM	200 nM	COc1ccc2c(c1)CN(CC[C@H]1CC[C@H](NC(=O)/C=C/c3ccc(F)cc3)CC1)C2	
10 nM	398 nM	O=C(/C=C/c1ccc(F)cc1)N[C@H]1CC[C@H](CCN2Cc3ccc(C(F)(F)F)cc3C2)CC1	
25.1 nM	2510 nM	N#Cc1ccc2c(c1)CN(CC[C@H]1CC[C@H](NC(=O)c3cc4ccccc4[nH]3)CC1)C2	
5.01 nM	501 nM	CS(=O)(=O)Oc1ccc2c(c1)CN(CC[C@H]1CC[C@H](NC(=O)/C=C/c3ccc(F)cc3)CC1)C2	Ki [3]: > 7940 nM; Ki [4]: > 1000 nM; Ki [5]: > 5010 nM; pKb [6]: 8.3; Ki [7]: > 3980 nM; bioavailability [8]: 77%; half-life [9]: 5.2 h; Ki [10]: > 5010 nM; Ki [11]: 5010 nM; Ki [12]: > 10000 nM; Ki [13]: 3160 nM; Ki [14]: 1260 nM; clearance [15]: 14 mL/min/kg
12.6 nM	631 nM	N#Cc1ccc2c(c1)CN(CC[C@H]1CC[C@H](NC(=O)/C=C/c3ccc(F)cc3)CC1)C2	
63.1 nM	2510 nM	N#Cc1ccc2c(c1)CN(CC[C@H]1CC[C@H](NC(=O)c3ccnc4ccccc34)CC1)C2	
10 nM	1000 nM	COc1cccc(/C=C/C(=O)N[C@H]2CC[C@H](CCN3Cc4ccc(C#N)cc4C3)CC2)c1	
